Measured values from patent US7026514B2, “Compounds used to treat alcoholism” (Garbil Pharma Investigacion Chile Ltda., priority 2001, dated 2006).

Key:
[1] = tested on: metabolism of acetaldehyde; assay: Assessment of disulfiram-like adverse effect (blood acetaldehyde after ethanol, gas chromatography); type: in vivo, Wistar male rats
Procedure: The possible disulfiram-like adverse effect of N,N′-bis(3-aminopropyl)cyclohexane-1,4-diamine tetramethanesulfonate monohydrate was studied by gas-chromatographic measurements of the blood concentration of acetaldehyde in standard Wistar male rats, after the intraperitoneal administration of 2.76 g/kg of ethanol in the form of 10% (v/v) aqueous solution. Blood samples were taken from the tail (0.5, 1.0 and 2.0 h after ethanol administration) and from the suprahepatic vein (2.0 h after ethanol administration).

[2] = tested on: genetically-alcoholic rats, UChB strain; assay: Anti-alcoholism activity during a prolonged treatment period (30 days); type: in vivo, Wistar rats; settings: 40 mg/kg, treatment period of 30 days
From the text: (§1) As an animal model of alcoholic mammals, including human beings, adult Wistar rats of both sexes, belonging to the UChB strain were used. This strain of rats is the result of a long selection at the University of Chile, and rats belonging to it are known to be volunteer consumers of 10% (v/v) aqueous alcohol (cf. J. Mardones and N. Segovia-Riquelme, “Thirty two years of selection of rats by ethanol preference”: UChA and UChB strains”, Neurobehav. Toxicol. and Teratol. 1983, vol. 5, pp. 171–178). Thus, the rats used in these experiments can be considered genetically alcoholic.
Rats were kept in individual cages at 22° C., with alternative 12 h periods of light and darkness. […] All experiments were double-blind, and results were analyzed using common statistical methods. As changes in alcohol consumption might be influenced by the eagerness of food and/or water intake, both the consumption of food and of water were measured and analyzed. […]
(§2) The effect of the administration of N,N′-bis(3-aminopropyl)-cyclohexane-1,4-diamine tetramethanesulfonate monohydrate to Wistar rats of both sexes belonging to the UChB strain, at a dose of 40 mg/kg during a treatment period of 30 days, was assessed in an experiment analogous to the one of Example 4. Individual consumptions of alcohol and water, measured daily, were grouped in cycles of 3 consecutive days, thus reducing data to ten average values.

[3] = tested on: genetically-alcoholic rats, UChB strain; assay: Anti-alcoholism activity in genetically-alcoholic rats (3 or 6 day treatment); type: in vivo, Wistar rats; settings: for lowered alcohol consumption: vs reference period
From the text: as §1
Rats were kept in individual cages at 22° C., with alternative 12 h periods of light and darkness. Besides unlimited access to food, they had ad libitum access to water and 10% (v/v) aqueous alcohol. All experiments were double-blind, and results were analyzed using common statistical methods. As changes in alcohol consumption might be influenced by the eagerness of food and/or water intake, both the consumption of food and of water were measured and analyzed. […] In each experiment the following three periods of time were considered:
a) A reference period, consisting of the three days previous to treatment. The measured consumption values were used as reference for comparison purposes.
b) A treatment period, consisting of the three or six days during which aqueous solutions of the tested compound were intra-gastrically administered, always at the same time of the day. N,N′-bis(3-aminopropyl)cyclohexane-1,4-diamine tetramethanesulfonate monohydrate was administered at two doses, 20 mg/kg of body weight and 40 mg/kg, using aqueous solutions of the tested compound of concentrations 10 g/L and 20 g/L, respectively. Dose of 20 mg/kg was tested both for 3 consecutive days and 6 consecutive days. Dose of 40 mg/kg was tested only for 3 consecutive days.
c) A post-treatment period, consisting of the three days immediate after the treatment period, during which measurement were taken in order to establish the duration of the effect and the reversibility of the changes.

[4] = tested on: genetically-alcoholic rats, UChB strain; assay: Anti-alcoholism activity during a post-treatment period (27 days); type: in vivo, Wistar rats; settings: 27 days after the 30-day treatment at 40 mg/kg
Procedure: as §2
The effect of the administration of N,N′-bis(3-aminopropyl)-cyclohexane-1,4-diamine tetramethanesulfonate monohydrate to Wistar rats of both sexes belonging to the UChB strain, during a post-treatment period of 27 days (9 cycles of 3 days) after the prolonged treatment of Example 5, was assessed in an analogous experiment. […] Therefore, the effect of N,N′-bis(3-aminopropyl)-cyclohexane-1,4-diamine tetramethanesulfonate monohydrate lasts substantially for a long time after a prolonged treatment, without recovering the initial levels of alcohol/water consumption.

| Compound | levels of acetaldehyde in blood ([1]; 40 mg/kg oral 2, 6, 8 and 24 h before 2.76 g/kg i.p. ethanol, blood at 0.5, 1.0, 2.0 h) | block of the metabolism of acetaldehyde ([1]; conclusion from blood acetaldehyde after ethanol, disulfiram in a control test) | decrease in alcohol consumption at the end of the treatment period [2] | lowered alcohol consumption ([3]; 20 mg/kg intra-gastric for 6 days, first 6 hours after administration, p<0.01) | decrease of alcohol consumption along the post-treatment period ([3]; 40 mg/kg for 3 days, three days after treatment) | lowered alcohol consumption ([3]; 40 mg/kg intra-gastric for 3 days) | decreases of alcohol consumption in the period of 6-24 h ([3]; 6-24 h after administration, compared with first 6 h) | changes in the consumption of both food and water ([3]; 20 or 40 mg/kg, 3 or 6 days) | overall activity as anti-alcoholism agent ([3]; overall results of Example 4) | decrease of alcohol consumption at the end of the post-treatment period [4] | block of the metabolism of acetaldehyde ([1]; rat, in vivo) |
| --- | --- | --- | --- | --- | --- | --- | --- | --- | --- | --- | --- |
| CS(=O)(=O)O.CS(=O)(=O)O.CS(=O)(=O)O.CS(=O)(=O)O.NCCCNC1CCC(NCCCN)CC1.O (centres unmarked) [N,N′-bis(3-aminopropyl)cyclohexane-1,4-diamine tetramethanesulfonate monohydrate] | did not raised levels of acetaldehyde in blood | does not block the metabolism of acetaldehyde significantly | 71% | 25% | this decrease was kept along the post-treatment period | 27% | smaller | not significant | substantial activity as anti-alcoholism agent | 24% | – |
| CCN(CC)C(=S)SSC(=S)N(CC)CC [disulfiram, tetraethylthiuram disulfide, reference compound] | – | – | – | – | – | – | – | – | – | – | contrary to what happens with disulfiram |
